Values of other authors in paper PMC6054295 (Infection and Drug Resistance, 2018).
Where no end group is shown, it is not given here.

Tests used:
[1] = test system: P. aeruginosa; settings: at concentrations > 100 μM
[2] = test system: 3T3 cells
[3] = test system: MEWO cells

Substance | antibacterial activity [1] | cytotoxicity [2] | cytotoxicity [3] | concentration at which it behaves as a membrane-disrupting peptide
N-APPGARPPPGPPPPGPPPPGP-C [SP-B] | negligible antibacterial activity | noncytotoxic | noncytotoxic | –
indolicidin: a proline- and tryptophan-rich peptide (ILPWKWPWWPWRR; ends and bridges not checked; UniProt P33046 131-143, looked up) | – | – | – | > 2.6 µM
